Experimental data reported in PMC7824383, “Organic Solution Advanced Spray-Dried Microparticulate/Nanoparticulate Dry Powders of Lactomorphin for Respiratory Delivery: Physicochemical Characterization, In Vitro Aerosol Dispersion, and Cellular Studies” (Pharmaceutics, 2020).
≈ marks a conversion by molar mass, not a printed value. Like-named read-outs stand apart in the source and are kept apart here. Square brackets hold non-standard residues; d marks the D form. Peptide text beside a SMILES is read from it. * marks the point of attachment. X1 = OC[C@H]1O[C@@H](O[C@H]2[C@H](O)[C@@H](O)[C@H](*)O[C@@H]2CO)[C@H](O)[C@@H](O)[C@H]1O

What was measured:
[1] = Equilibrium solubility by shake-flask method (SFM); assay type: physicochemical
Protocol: The solubility of the unionized form of raw (unprocessed) Lactomorphin was determined by the shake-flask method (SFM) using conditions similar to previously reported. For each reported solubility result, three independent SFM experiments were carried out in parallel in the following solvents (purified water, PBS, NS, methanol, and ethanol). For each experiment, the solid sample of Lactomorphin was added using a spatula to a specific volume of each solvent in closed, light-protected glass vials while shaking the vial until a heterogeneous system of the solid sample and the solvent was achieved. Samples were visually inspected to ensure that solid Lactomorphin was still in excess in each vial. The solution containing solid excess of the Lactomorphin was then capped and allowed to agitate using the shaker for 24 h at room temperature (25 °C). The presence of precipitation was checked after several hours. If dissolution was complete, more solid Lactomorphin was added to the vial.
The pH values of Lactomorphin ampholyte suspensions were adjusted to the isoelectric point to determine the solubilities of the zwitterionic species point and to assure the predominant presence of the unionized form of Lactomorphin. The pH of each Lactomorphin suspension in each solvent (except in methanol and ethanol, which were just measured) was adjusted by using 0.1 M NaOH/0.1 M HCl to a value of 8.5. The pH values for all vials were checked after saturation, several hours after the shaking process started, and after equilibrium was achieved. Separating saturated solution and precipitate by sedimentation was performed, which is more accurate than filtration since the filtration step is labor-intensive and tedious, it has been a known issue that drug loss can occur through membrane absorption during filtration in the SFM [32]. Aliquots of supernatant were then taken out with a micropipette from all saturated solutions and diluted with each corresponding solvent. Analytical HPLC measured the concentration of Lactomorphin in each aliquot in against freshly prepared calibration curves. As mentioned above, three independent SFMs were made for each reported result. Thus, the reported results were the mean of three measured concentrations and the standard deviation of the mean (n = 3, mean ± Standard deviation).
The HPLC system was LC-2010HT next generation HPLC (SHIMADZU Tokyo, Japan), comprised of a degassing unit, low-pressure gradient unit, pump unit, mixer, ultra-fast autosampler, column oven, and a UV-VIS detector with a thermostatted flow cell. System. The analysis was performed by a reverse phase HPLC assay, using Phenomenex Prodigy 5 um ODS (3) 250 × 4.6 mm HPLC Column. Ultraviolet detection was done at 280 nm. Mobile phase conditions were gradient of acetonitrile (CH3CN) in water (H2O) with 0.1% trifluoroacetic acid (F3CCOOH) at a 1 mL/min flow rate. The injection volume was 20 μL; the retention time for Lactomorphin was ~8.5 min. Quantification was determined using peak area and calculated from a nine-point standard curve; standard curve points were prepared by dilution in water.

[2] = Partition coefficient (LogP) by shake-flask, 1-octanol/water; assay type: physicochemical; conditions: shake-flask 1-octanol/water (equal volumes, water saturated with octanol), 1 mg/mL, pH 8.5, shaken 24 h then 24 h standing, HPLC-UV 280 nm, mean ± SD, n = 3
Protocol: Lipophilicity is a critical physicochemical property that affects ADMET (absorption, distribution, metabolism, excretion, and toxicity). SFM is the most known lipophilicity measurement method, which is based on liquid-liquid extraction using the n-octanol/water system. The partition coefficient of Lactomorphin was measured at the room, and physiological temperatures via SFM using conditions similar to previously reported. The Lactomorphin powder was dispensed into two individual glass vials containing equal volumes of 1-octanol and water to achieve a 1 mg/mL concentration. The water solution in each vial was saturated with octanol before analysis. The pH was measured and fixed to 8.5 value to assure the predominant presence of the unionized form of Lactomorphin. The pH stability in both vials was regularly checked throughout the experiment. The first vial was shaken for 24 h at room temperature. The other one was shaken for 24 h while kept in an incubator at 37 °C. After 24 h, the vials shaking was stopped. […] A sample from each layer was carefully withdrawn and analyzed by the analytical HPLC to measure the concentration of Lactomorphin in each layer then calculate the Partition coefficient (P) and logP using the following equations:(4) P =[neutral solute]oct/[neutral solute]Aq (5) LogP=log10[neutral solute]oct/[neutral solute]Aq […]

[3] = Thermal degradation study of solid-state Lactomorphin; assay type: physicochemical; conditions: n = 3
From the text: Forced degradation is a degradation of new drug substances at conditions more severe than accelerated conditions. The FDA and ICH guidance estate the requirement of stability testing data to understand how the quality of drug changes with time under various environmental conditions. Thermal, hydrolysis, oxidation, and photodegradation are commonly used stress study conditions. Knowledge of a molecule’s stability helps select proper formulation and provide adequate storage conditions and shelf life, which is essential for regulatory documentation. As the temperature is one of the most vital factors that affect the stability of a drug material more than the other conditions, in this study, we performed thermal degradation by exposing samples of solid-state Lactomorphin to dry and wet heat.
Samples preparation were done by weighing 25 mg of Lactomorphin, transfer it into a 25 mL volumetric flask, and add 25 mL of water and shake so all the quantity dissolved. Using a calibrated micropipette, transfer 0.20 mL of this 1 mg/mL Lactomorphin stock solution into around 90 (2 mL) glass vials. Freeze-dry all vials so that all vials have accurately 0.2 mg of Lactomorphin after lyophilization. A saturated salt solution of NaCl to achieve about 75% Relative Humidity (RH) and saturated salt solution of P2O5 to reach about 0.00% RH were prepared. Thirty vials contain 0.2 mg of Lactomorphin were kept inside a separate desiccator (tightly closed 20 mL glass vial with saturated NaCl). Another set of 30 vials were kept inside the desiccator (tightly closed 20 mL glass vial with saturated P2O5). All were put in oven fixed at 62 °C temperature. To achieve equal distribution of heat inside the oven for all samples used for the degradation study, they were placed in a metallic block made, especially for this study. The rest of the vials were kept in a desiccator at −80 °C to be used as comparison(control) samples.
According to the regulatory guidelines, there is no specific concentration used for the degradation study; however, 1 mg/mL concentration is recommended. This study used three concentrations by dissolving the stability samples in 0.2 mL, 0.4 mL, and 2 mL water to achieve 1000 μg/mL, 500 μg/mL, and 100 μg/mL concentration, respectively. Analysis of the stability samples was performed every time against a freshly prepared calibration curve and comparison samples (control samples that freshly prepared and injected directly without being exposed to the force degradation conditions) at the following periods: 0.00, 0.08, 0.17, 1, 2, 4, 10, 20, 45, 94 and 133 days. All experiments at each time point and different stability conditions were done in triplicate (n = 3). The HPLC system consisted of a VARIAN ProStar model 330 PDA Detector coupled with a VARIAN ProStar Solvent delivery module and VARIAN ProStar model 430 auto-sampler. The analysis was performed by a reverse phase HPLC assay, using Inspire™ 5 μm C18, 250 × 4.6 mm HPLC Column. Ultraviolet detection was done at 280, 254 and 220 nm, but the quantitation was done at 280 nm only. Mobile phase conditions were gradient according to the above program in Section 2.2.13 and at a flow rate of 1.00 mL/min.

[4] = test system: Normal Human Astrocytes (NHA); assay: Resazurin cell viability assay, NHA; conditions: NHA cells, 48 h exposure, 0.1, 1, 10 and 1000 µg/mL, resazurin fluorescence; p > 0.05
[5] = test system: H441 lung adenocarcinoma cells; assay: Resazurin cell viability assay, H441; conditions: 48 h exposure, 0.1, 1, 10 and 1000 µg/mL, resazurin fluorescence, p > 0.05
[6] = test system: hCMEC/D3 human cerebral microvascular endothelial cells; assay: Resazurin cell viability assay, hCMEC/D3; conditions: 48 h exposure, 0.1, 1, 10 and 1000 µg/mL, resazurin fluorescence, p > 0.05
[7] = test system: RPMI 2650 human nasal epithelial cells; assay: Resazurin cell viability assay, RPMI 2650; conditions: RPMI2650 cells, 48 h exposure, 0.1, 1, 10 and 1000 µg/mL, resazurin fluorescence 544/590 nm; p > 0.05
[8] = Residual water content by Karl Fischer titration; assay type: physicochemical; conditions: Karl Fischer coulometric titration, 1–2 mg in anhydrous methanol; mean ± SD, n = 3
Protocol: Using conditions similar to previously reported, the residual water content of all powders was quantified by Karl Fischer titration (KFT) […] using a TitroLine® 7500 trace titrator (SI Analytics, Mainz, Germany). Around 1–2 mg of sample was dissolved in 0.5 mL AQUA STAR anhydrous methanol. The sample solution was injected into a reaction cell filled with Hydranal®Coulomat AD reagent; then, a simple calculation obtained the sample’s water content. All experiments were done in triplicate (n = 3).

CC(C)C[C@H](NC(=O)[C@H](Cc1ccccc1)NC(=O)CNC(=O)[C@H](NC(=O)[C@@H](N)Cc1ccc(O)cc1)[C@H](C)O)C(=O)N[C@@H](CO[C@@H]1O[C@H](CO)[C@@H](O[C@@H]2O[C@H](CO)[C@H](O)[C@H](O)[C@H]2O)[C@H](O)[C@H]1O)C(N)=O [Lactomorphin, H2N-Tyr-D-Thr- Gly-Phe-Leu-Ser-(O-β-Lactoside)-CONH2] (H-Y[dT]GFLS(X1)-NH2)
Solubility (USP) Definition, PBS ([1]; PBS, pH 8.50 (adjusted), 25 °C): Freely soluble (Fs) (all these solubility values fell in the range of 100–1000 mg/mL, which is the freely soluble category) | solubility thermodynamic at 24 h ([1]; aqueous buffer, thermodynamic from solid, water, NS and PBS, shake-flask, pH 8.5, 25 °C, read-out: aqueous solubility): > 100 mg/mL | Solubility (USP) Definition, Ethanol ([1]; ethanol, pH 7.30 (measured), 25 °C): Sparingly soluble (sps) | Calculated Log S, NS ([1]; from experimental solubility, footnote: S in mMoleunit, NS, pH 8.50): −0.9 | Calculated Log S, PBS ([1]; from experimental solubility, footnote: S in mMoleunit, PBS, pH 8.50): −0.3 | Calculated Log S, Ethanol ([1]; from experimental solubility, footnote: S in mMoleunit, ethanol): −1.7 | Calculated Log S, Methanol ([1]; from experimental solubility, footnote: S in mMoleunit, methanol): −1.3 | Calculated Log S, Water ([1]; from experimental solubility, footnote: S in mMoleunit, water, pH 8.50): −0.6 | Solubility (USP) Definition, Methanol ([1]; methanol, pH 7.27 (measured), 25 °C): Soluble (s) | solubility thermodynamic at 24 h ([1]; normal saline (NS), pH 8.5, saline or isotonic, thermodynamic from solid, thermodynamic shake-flask, excess solid, normal saline, pH 8.50 (adjusted), shaken 24 h, 25 °C, HPLC-UV 280 nm, mean ± SD, n = 3, read-out: Solubility in NS): 140.4 ± 0.32 mg/mL (≈ 139 mM) | Solubility (USP) Definition, NS ([1]; normal saline, pH 8.50 (adjusted), 25 °C): Freely soluble (Fs) (all these solubility values fell in the range of 100–1000 mg/mL, which is the freely soluble category) | solubility thermodynamic at 24 h ([1]; pH 8.5, aqueous buffer, thermodynamic from solid, thermodynamic shake-flask, excess solid, PBS, pH 8.50 (adjusted), shaken 24 h, 25 °C, HPLC-UV 280 nm, mean ± SD, n = 3, read-out: Solubility in PBS): 570.3 ± 2 mg/mL (≈ 565 mM) | solubility thermodynamic at 24 h ([1]; pH 8.5, thermodynamic from solid, thermodynamic shake-flask, excess solid raw Lactomorphin, purified water, pH 8.50 (adjusted with 0.1 M NaOH/HCl), shaken 24 h, 25 °C, sedimentation, HPLC-UV 280 nm, mean ± SD, n = 3, read-out: Solubility in Water): 267 ± 6 mg/mL (≈ 264 mM) | Solubility in Ethanol ([1]; thermodynamic shake-flask, excess solid, ethanol, pH 7.30 (measured), shaken 24 h, 25 °C, HPLC-UV 280 nm, mean ± SD, n = 3): 18.00 ± 0.00 mg/mL (≈ 17.8 mM) | Solubility in Methanol ([1]; thermodynamic shake-flask, excess solid, methanol, pH 7.27 (measured), shaken 24 h, 25 °C, HPLC-UV 280 nm, mean ± SD, n = 3): 45.67 ± 1.00 mg/mL (≈ 45.2 mM) | Solubility (USP) Definition, Water ([1]; water, pH 8.50 (adjusted), 25 °C): Freely soluble (Fs) (all these solubility values fell in the range of 100–1000 mg/mL, which is the freely soluble category) | Experimental LogP at Room Temperature (25 °C) ([2]; 25 °C): −2.40 ± 0.00 | Experimental LogP at Physiological Temperature (37 °C) ([2]; 37 °C): −2.33 ± 0.02 | Lactomorphin stability% (remaining%) ([3]; solid (lyophilised 0.2 mg), 62 °C / 75% RH, 2 hrs, reconstituted in water to 100, 500, 1000 μg/mL, HPLC-UV 280 nm vs fresh controls): 59% | Lactomorphin stability% (remaining%) ([3]; solid, 62 °C / 75% RH, 4 hrs, reconstituted 100, 500, 1000 μg/mL, HPLC-UV 280 nm): 29% | Lactomorphin stability% (remaining%) ([3]; solid, 62 °C / 75% RH, 24 h, reconstituted 100, 500, 1000 μg/mL, HPLC-UV 280 nm): 6% | Lactomorphin stability% (remaining%) ([3]; solid, 62 °C / RH 0.00%, 10 days, HPLC-UV 280 nm): around 60% | Lactomorphin stability% (remaining%) ([3]; solid, 62 °C / RH 0.00%, day 94, HPLC-UV 280 nm): ~ 10% | Lactomorphin stability% (remaining%) ([3]; solid, 62 °C / RH 0.00%, day 133, HPLC-UV 280 nm): ~ 10% | Lactomorphin stability% (remaining%) ([3]; solid, 62 °C / RH 0.00%, up to day 45, HPLC-UV 280 nm): around 60% | relative cell viability% vs control [4]: no statistically significant difference | relative cell viability% vs control [5]: no statistically significant difference | relative cell viability% vs control [6]: no statistically significant difference | relative cell viability% vs control [7]: no statistically significant difference

OC[C@H]1O[C@H](O[C@H]2O[C@H](CO)[C@@H](O)[C@H](O)[C@H]2O)[C@H](O)[C@@H](O)[C@@H]1O [Raw Trehalose, D (+)-Trehalose dihydrate]
Water % (w/w) [8]: 8.11 ± 1.96 % (w/w)
